Data set [1] has as its system 8-year old young Cryptomeria japonica trees. The data set can be described thus: Foliar spray of prohexadione compound on branches of 8-year old young Cryptomeria japonica trees (Example 1). The format is in vivo. Conditions: 8-year old trees; for Branches Elongation: control group 24.6 ± 6.4; for Number of male flower clusters: 100 ml foliar spray, control group 136.9 ± 21.6. How it is done: Two 8-year old young Cryptomeria japonica trees (height: 8 m, diameter at breast height: 6 cm) which were in a nursery of an experimental plantation of the department of agriculture of Tottori University and which had formed male flowers every year were used. Three branches were selected at male flower-forming positions of each tree. These branches which were supposed to form the male flowers were treated with the prohexadione compound ([…]) on Jun. 5, 2001 (about one month before the beginning of July when Cryptomeria japonica flower buds were supposed to differentiate and Cryptomeria japonica flower buds were supposed to be formed). In this test, the prohexadione compound was diluted to a concentration shown in Table 3 given below with 60% (v/v) aqueous acetone solution.
The treatment method was as follows: 100 ml of the diluted solution obtained as described above was sprayed on leaves of the branches (50 cm long area from the branch top) with a hand sprayer In a control group, the leaves were treated with only 60% (v/v) aqueous acetone solution.
The concentrations of the prohexadione compound used for the foliar spray treatment were as follows: • Concentration (ppm) • 0.5 • 5 • 50 • 500

Data set [2] relates to 43-year old Cryptomeria japonica trees. Description: Aerial (helicopter curtain) application of the agent to a forest of 43-year old Cryptomeria japonica trees (Example 2). The class given is in vivo. Conditions: 43-year old trees; for Number of male flower clusters: Table 6 composition (polyoxyethylene castor oil, tetrahydrofurfuryl alcohol, water), 1.8 liters per 10 a by helicopter, control group 2985.8 ± 789.1; for Shoot Elongation: Table 6 composition, control group 80.8 ± 9.4. How it is done: A Cryptomeria japonica forest having 43-year old Cryptomeria japonica trees (height: 16 m, diameter at breast height: 35 cm) was treated in Nirayama experimental plantation of the department of agriculture of Tottori University on Jun. 25, 2001.
The concentration of the agent for inhibiting the formation of Cryptomeria japonica pollen thus sprayed was 50 or 500 ppm.
1.8 liters of each of the above described two compositions was applied to the forest having an area of 10 a by the curtain application method with a helicopter. The aerial application was conducted twice, using 0.9 liter of the composition each time. In a control group, only water free from the active ingredients was used for the aerial application.

For `CCOC(=O)C1CC(=O)C(=C(O)C2CC2)C(=O)C1` (stereo not shown), the “Branches Elongation” value in data set [1] (0.5 ppm foliar spray) was 25.5 ± 7.2 cm; in data set [1] (5 ppm foliar spray) it was 26.2 ± 6.5 cm; in data set [1] (50 ppm foliar spray), 24.3 ± 6.3 cm; in data set [1] (500 ppm foliar spray), 25.2 ± 5.5 cm. For the same compound, the “Number of male flower clusters” value in data set [1] (0.5 ppm in 60% aqueous acetone) is reported as 111.6 ± 25.2; in data set [1] (5 ppm in 60% aqueous acetone), 70.4 ± 12.4; in data set [1] (50 ppm in 60% aqueous acetone), 21.2 ± 6.5; in data set [1] (500 ppm in 60% aqueous acetone) it was 10.8 ± 6.1; in data set [2] (50 ppm) it was 751.3 ± 121.5; in data set [2] (500 ppm), 124.2 ± 55.2. In addition, the “Elongation growth of the Cryptomeria japonica branches versus control group (in words)” value in data set [1] (0.5 to 500 ppm) is reported as “substantially unchanged”. Moreover, the “Effect of inhibiting the differentiation and formation of male Cryptomeria japonica flowers (in words)” value in data set [1] (50 ppm or 500 ppm) was “remarkable”. Further, the “Elongation growth of the Cryptomeria japonica trees versus control group (in words)” value in data set [2] (50 or 500 ppm, aerial application) is recorded as “substantially the same as that in the control group”. In addition, the “Effect of inhibiting the differentiation and formation of the male flowers (in words)” value in data set [2] (50 ppm or 500 ppm, aerial application) was “remarkable effect”. The “Shoot Elongation” value in data set [2] (50 ppm, aerial application) was 83.3 ± 10.7 cm; in data set [2] (500 ppm, aerial application), 82.8 ± 11.2 cm.

Values taken from patent publication US20080153705A1, “METHOD FOR INHIBITING DIFFERENTITATION AND FORMATION OF CONIFEROPHYTA MALE FLOWERS BY TREATMENT WITH PROHEXADIONE COMPOUNDS” (Syngenta Crop Protection, Inc., priority 2002, published 2008).
